We go through 37 compounds from patent publication EP0279263B1, “Indole, benzofuran, benzothiophene containing lipoxygenase inhibiting compounds” (ABBOTT LABORATORIES, priority 1987, dated 1988).

This test concerns the target T1, 5-lipoxygenase (Rattus norvegicus, UniProt P12527).
T1 construct: 20,000xg supernatant from 6x10⁴ homogenized RBL-1 cells; endogenous in cells; host or cells: RBL-1 cells (homogenate, 20,000xg supernatant)
T1 sequence (P12527 1-673): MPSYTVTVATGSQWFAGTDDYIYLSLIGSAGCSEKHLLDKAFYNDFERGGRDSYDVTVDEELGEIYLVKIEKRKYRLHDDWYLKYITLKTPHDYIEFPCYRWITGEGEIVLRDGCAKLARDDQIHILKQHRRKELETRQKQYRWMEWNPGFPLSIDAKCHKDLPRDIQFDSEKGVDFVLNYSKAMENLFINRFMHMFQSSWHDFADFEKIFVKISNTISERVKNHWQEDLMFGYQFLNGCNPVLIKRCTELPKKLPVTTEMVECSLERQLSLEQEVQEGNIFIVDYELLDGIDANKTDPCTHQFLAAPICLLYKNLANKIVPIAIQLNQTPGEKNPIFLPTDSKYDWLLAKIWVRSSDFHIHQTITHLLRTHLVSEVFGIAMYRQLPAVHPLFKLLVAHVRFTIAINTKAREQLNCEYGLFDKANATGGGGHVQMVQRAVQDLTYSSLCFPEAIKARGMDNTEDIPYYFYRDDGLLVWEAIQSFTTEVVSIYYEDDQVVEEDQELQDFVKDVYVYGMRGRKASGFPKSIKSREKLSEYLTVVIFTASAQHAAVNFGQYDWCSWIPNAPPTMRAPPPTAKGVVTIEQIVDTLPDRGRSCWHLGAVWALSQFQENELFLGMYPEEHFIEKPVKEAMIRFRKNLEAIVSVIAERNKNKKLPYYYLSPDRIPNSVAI
The test can be described thus: Lipoxygenase IC50 determination (5-lipoxygenase inhibitory activity, RBL-1 cell supernatant). The class given is biochemical. The conditions noted are these: 20,000xg supernatant from homogenized RBL-1 cells, radiolabelled arachidonic acid, 2% DMSO vehicle. Here is the method: Reactions were initiated by addition of radiolabelled arachidonic acid and terminated by acidification and ether extraction. Reaction products were separated from nonconverted substrate by thin layer chromatography and measured by liquid scintillation spectroscopy. All treatments were evaluated in triplicate incubations.

Consider `CC(c1cc2ccccc2s1)N(O)C(=O)N(C)C` (stereo not shown) [Example 4, N-hydroxy-N-(1-benzo[b]thien-2-ylethyl) N'N'-dimethyl urea], for which the IC50 (usually the concentration at which inhibition is half-maximal) worked out at 540 nM.

In the case of `CC(c1cc2ccccc2n1S(C)(=O)=O)N(O)C(N)=O` (stereo not shown) [Example 40, N-hydroxy-N-[1-(1-methanesulfonylindol-2-yl)ethyl] urea], the IC50 came to 3000 nM. The figure for `CC(c1cc2ccccc2s1)N(O)C(N)=S` (stereo not shown) [Example 25, N-hydroxy-N-(1-benzo[b]thien-2-ylethyl) thiourea] is 190 nM. On to `CNC(=S)N(O)C(C)c1cc2ccccc2s1` (stereo not shown) [Example 45, N-hydroxy-N-(1-benzo[b]thien-2-ylethyl) N'-methyl thiourea], for which half-maximal inhibition (IC50) was put at 190 nM. The figure for `NC(=O)N(O)CC=Cc1cc2ccccc2s1` [Example 32, N-hydroxy-N-(3-benzo[b]thien-2-ylprop-2-enyl) urea] is 350 nM. As to `CNC(=O)N(O)Cc1cc2ccccc2s1` [Example 46, N-hydroxy-N-benzo[b]thien-2-ylmethyl N'-methyl urea], the IC50 was 1900 nM. The compound `CCNC(=O)N(O)C(C)c1cc2ccccc2s1` (stereo not shown) [Example 44, N-hydroxy-N-(1-benzo[b]thien-2-ylethyl) N'-ethylurea] gave an IC50 of 1800 nM.

`CNC(=O)N(O)C(C)c1cc2ccc(OCc3ccccc3)cc2o1` (stereo not shown) [Example 52, N-hydroxy-N-[1-(6-benzyloxybenzo[b]fur-2-yl)ethyl]N'-methyl urea] gave a half-inhibitory concentration (IC50) of 200 nM.

For the compound `CC(c1csc2ccccc12)N(O)C(N)=O` (stereo not shown) [Example 9, N-hydroxy-N-(1-benzo[b]thien-3-ylethyl) urea], the IC50 was found to be 1300 nM. The figure for `CN(C)C(=O)N(O)Cc1cc2ccccc2s1` [Example 7, N-hydroxy-N-benzo[b]thien-2-ylmethyl N',N'-dimethyl urea] is 1100 nM. As to `CC(c1cc2cc(Cl)cc(Cl)c2o1)N(O)C(N)=O` (stereo not shown) [Example 33, N-hydroxy-N-[1-(5,7-dichlorobenzo[b]fur-2-yl)ethyl] urea], the concentration for half-maximal inhibition (IC50) amounted to 360 nM. `Cc1ccc(C)c2sc(C(C)N(O)C(N)=O)cc12` (stereo not shown) [Example 28, N-hydroxy-N-[1-(4,7-dimethylbenzo[b]thien-2-yl)ethyl] urea]: the concentration for half-maximal inhibition (IC50) was found to be 400 nM. For `CC(=O)N(O)C(C)c1cn(C)c2ccccc12` (stereo not shown) [Example 16, N-hydroxy-N-(1-(1-methylindol-3-yl)ethyl) acetamide], the IC50 was determined as 2600 nM. On to `CC(c1cc2ccccc2s1)N(O)C=O` (stereo not shown) [Example 20, N-hydroxy-N-(1-benzo[b]thien-2-ylethyl) formamide], for which half-maximal inhibition (IC50) required 3000 nM. Regarding `CC(c1cc2cc(Cl)ccc2[nH]1)N(O)C(N)=O` (stereo not shown) [Example 38], half-maximal inhibition (IC50) required 1000 nM. Compound `CC(c1cc2cc(F)ccc2s1)N(O)C(N)=O` (stereo not shown) [Example 29, N-hydroxy-N-[1-(5-fluorobenzo[b]thien-2-yl)ethyl] urea] displayed an IC50 of 500 nM. The same measure for `CC(c1cc2ccccc2o1)N(O)C(N)=O` (stereo not shown) [Example 15, N-hydroxy-N-(1-benzo[b]fur-2-ylethyl) urea]: 2700 nM. Turning to `CC(Cc1cc2ccccc2s1)N(O)C(N)=O` (stereo not shown) [Example 30, N-hydroxy-N-(2-benzo[b]thien-2-yl-1-methylethyl) urea], the IC50 worked out at 460 nM. The same measure for `CC(c1cn(C)c2ccccc12)N(O)C(N)=O` (stereo not shown) [Example 17, N-hydroxy-N-(1-(1-methylindol-3-yl)ethyl) urea]: 2800 nM; for `CC(=O)N(O)C(C)C1=Cc2ccccc2S1(=O)=O` (stereo not shown) [Example 12, N-hydroxy-N-[1-benzo[b]thien-2-ylethyl) acetamide 1,1-dioxide]: 21000 nM; for `NC(=O)N(O)Cc1cc2ccccc2o1` [Example 49, N-hydroxy-N-benzo[b]fur-2-ylmethyl urea]: 8200 nM. The figure for `CC(c1cc2ccccc2n1C)N(O)C(N)=O` (stereo not shown) [Example 24, N-hydroxy-N-(1-(1-methylindol-2-yl)ethyl) urea] is 1600 nM.

For the compound `CC(c1cc2ccccc2s1)N(O)C(=O)NO` (stereo not shown) [Example 43, N,N'-dihydroxy-N-(1-benzo[b]thien-2-ylethyl) urea], the half-inhibitory concentration (IC50) came to 510 nM. Consider `CCNC(=O)N(O)Cc1cc2ccccc2s1` [Example 47, N-hydroxy-N-benzo[b]thien-2-ylmethyl-N'-ethyl urea], for which the half-maximal inhibitory concentration (IC50) is 1000 nM. The figure for `CC(C)C(=O)N(O)C(C)c1cc2ccccc2s1` (stereo not shown) [Example 21, N-hydroxy-N-(1-benzo[b]thien-2-ylethyl) 2-methylpropionamide] is 380 nM. The same measure for `CC(c1cc2ccccc2[nH]1)N(O)C(N)=O` (stereo not shown) [Example 53]: 2900 nM; for `CC(c1cc2ccc(OCc3ccccc3)cc2o1)N(O)C(N)=O` (stereo not shown) [Example 51, N-hydroxy-N-[1-(6-benzyloxybenzo[b]fur-2-yl)ethyl] urea]: 250 nM. The figure for `CNC(=O)N(O)C(C)c1cn(C)c2ccccc12` (stereo not shown) [Example 18, N-hydroxy-N-(1-(1-methylindol-3-yl)ethyl) N'-methyl urea] is 3700 nM; for `CNC(=O)N(O)Cc1cc2ccccc2o1` [Example 50, N-hydroxy-N-benzo[b]fur-2-ylmethyl N'-methyl urea] it is 2300 nM; for `CCOc1cccc2cc(C(C)N(O)C(N)=O)oc12` (stereo not shown) [Example 36] it is 3500 nM. With `CC(C1Cc2ccccc2O1)N(O)C(N)=O` (stereo not shown) [Example 42, N-hydroxy-N-[1-(2,3-dihydrobenzo[b]fur-yl)ethyl] urea], 8500 nM corresponded to half-maximal inhibition (IC50). Compound `CC(=O)N(O)C(C)c1csc2ccccc12` (stereo not shown) [Example 8, N-hydroxy-N-(1-benzo[b]thien-3-ylethyl) acetamide] returned an IC50 of 1400 nM. The figure for `CC(=O)n1c(C(C)N(O)C(N)=O)cc2ccccc21` (stereo not shown) [Example 39, N-hydroxy-N-[1-(1-acetylindol-2-yl)ethyl] urea] is 4000 nM; for `CC(=O)N(O)CC=Cc1cc2ccccc2s1` [Example 31, N-hydroxy-N-(3-benzo[b]thien-2-ylprop-2-enyl) acetamide] it is 270 nM. The same measure for `CC(C)CC(c1cc2ccccc2s1)N(O)C(N)=O` (stereo not shown) [Example 48]: 200 nM; for `COc1cccc2cc(C(C)N(O)C(N)=O)oc12` (stereo not shown) [Example 34]: 1900 nM.

With `Cc1c(C(C)N(O)C(N)=O)sc2ccccc12` (stereo not shown) [Example 10, N-hydroxy-N-[1-(3-methylbenzo[b]thien-2-yl)ethyl] urea], the IC50 worked out at 540 nM.
